Experimental data reported in patent US11872210B2, “Thiol isomerases inhibitors and use thereof” (WESTERN NEW ENGLAND UNIVERSITY, priority 2017, dated 2024).

System: HeLa cells
Assay: PrestoBlue cell proliferation assay, HeLa
Type: cell-based
Protocol: Cells were plated at 6,000 cells/well in a 96-well plate and treated with the indicated concentration of zafirlukast 24 hours later. Cells were allowed to grow for an additional 24 hours before alterations in growth were measured by the PrestoBlue cell proliferation assay in triplicate. Fluorescence readings with an excitation at 570 nm and emission of 600 nm were collected and treated samples were converted to a percentage of the untreated controls. OVCar8 (human ovarian cancer cell line), HCT116 (human colon cancer), HeLa (cervical cancer cell line) and MDA-MB-231 (breast cancer cell line) cell lines were examined for their ability to inhibit cell proliferation. […] Table 1 illustrates the results of a cell proliferation assay testing zafirlukast against OVCar8 cells, HCT116 cells, HeLa cells and MDA-MB-231 cells.

COc1cc(C(=O)NS(=O)(=O)c2ccccc2C)ccc1Cc1cn(C)c2ccc(NC(=O)OC3CCCC3)cc12 [zafirlukast, 4-(5-cyclopentyloxycarbonylamino-1-methylindol-3-ylmethyl)-3-methoxy-N-o-tolylsulfonylbenzamide]
IC50 (Homo sapiens, cervical cancer, 24 hours treatment): 30 µM
sensitivity of cell proliferation (in words) (compared with OVCar8 and HCT116): less sensitive
